Measurements as given in EP3876933B1, “NEUTROPHIL INFLAMMATION INHIBITOR AND USES THEREOF” (Chang Gung University of Science and Technology, priority 2018, dated 2020).

Key:
[1] = tested on: human neutrophils; experiment: Superoxide anion (O2˙-) generation in fMLF/CB-activated human neutrophils (SOD-inhibitable ferricytochrome c reduction); assay type: cell-based; conditions: FMLP/CB-induced human neutrophils, mean ± S.E.M. (n = 3-5); for IC50 / inhibition at 10 µM: Neutrophil; for IC50: read-out: Superoxide Anion IC50; for inhibition at 10 µM / Superoxide Anion Inhibition %: at 10 µM concentration
Procedure: (§1) Human neutrophils were obtained in lipopolysaccharide-free conditions by means of dextran sedimentation and Ficoll centrifugation.
O2˙^- production was determined based on the SOD-inhibitable reduction of ferricytochrome c. Briefly, neutrophils (6 × 10^5/mL) were treated with a candidate compound at 37 °C at various concentrations (0.001 to 10 µM) for 5 min after being supplementing with 0.5 mg/mL ferricytochrome c and 1 mM Ca^2+. Cells were then activated with fMLF (0.1 µM) for 10 min in the pre-process of cytochalasin B (CB, 1 µg/mL) for 3 min. Changes in absorbance with the reduction of ferricytochrome c at 550 nm were continuously monitored in a double-beam, six-cell positioner spectrophotometer with constant stirring (Hitachi U-3010, Tokyo, Japan). Calculations were based on the differences in the reactions with and without SOD (100 U ml^-1) divided by the extinction coefficient for the reduction of ferricytochrome c (ε = 21.1 mM^-1/10 mm).

[2] = tested on: human neutrophils; experiment: Elastase release in fMLF/CB-activated human neutrophils (Methoxysuccinyl-Ala-Ala-Pro-Val-p-nitroanilide substrate); assay type: cell-based; conditions: Neutrophil, FMLP/CB-induced human neutrophils, mean ± S.E.M. (n = 3-5); for IC50: read-out: Elastase Release IC50; for inhibition at 10 µM: at 10 µM concentration
Procedure: as §1
Methoxysuccinyl-Ala-Ala-Pro-Val-p-nitroanilide was employed as the elastase substrate for the determination of elastase release. Briefly, after supplementation with Methoxysuccinyl-Ala-Ala-Pro-Val-p-nitroanilide (100 µM), neutrophils (6 × 10^5/mL) were equilibrated at 37 °C for 2 min and incubated with a candidate compound at various concentrations for 5 min. Cells were then activated with fMLF (0.1 µM) for 10 min in the pre-process of CB (0.5 µg/mL) for 3 min, and changes in absorbance at 405 nm were continuously monitored to evaluate elastase release. Results are expressed as the percentage of elastase release in the drug-free control group, DMSO.

IC50 [1] [µM]	IC50 [2] [µM]	Structure (SMILES)	inhibition at 10 µM [1] [%]	inhibition at 10 µM [2] [%]	Superoxide Anion Inhibition % [1]
> 10	> 10	COc1cc(Nc2nc3ccccc3c3onc(N)c23)cc(OC)c1OC [Compound 24, 4-(3,4,5-Trimethoxyanilino)isoxazolo[4,5-c]quinolin-3-amine]	17.1 ± 3.77	-10.6 ± 3.81	
> 10	> 10	COc1cccc(Nc2nc3ccccc3c3c2c(N)nn3C)c1 [Compound 6, 4-(3-Methoxyanilino)-1-methyl-1H-pyrazolo[4,3-c]quinolin-3-amine]	27.5 ± 5.47	33.4 ± 6.04	
1.37 ± 0.08	4.65 ± 2.57	COc1ccccc1Nc1nc2ccccc2c2c1c(N)nn2C [Compound 5, 4-(2-Methoxyanilino)-1-methyl-1H-pyrazolo[4,3-c]quinolin-3-amine]	90.1 ± 3.38	66 ± 6.51	
2.88 ± 0.27	> 10	CC(=O)c1cccc(Nc2nc3ccccc3c3onc(N)c23)c1 [Compound 26, 4-(3-Acetoylanilino)isoxazolo[4,5-c]quinolin-3-amine]	76.2	-4.55 ± 5.83	
0.8 ± 0.09	3.25 ± 0.08	COc1cc(Nc2nc3ccccc3c3c2c(N)nn3C)cc(OC)c1OC [Compound 8, 4-(3,4,5-Trimethoxyanilino)-1-methyl-1H-pyrazolo[4,3-c]quinolin-3-amine]	98.2 ± 2.41	89.8 ± 6.51	
6.53 ± 0.9	> 10	COc1cccc(Nc2nc3ccccc3c3onc(N)c23)c1 [Compound 22, 4-(3-Methoxyanilino)isoxazolo[4,5-c]quinolin-3-amine]	69.2 ± 3.14	-3.61 ± 0.98	
> 10	> 10	Cn1nc(N)c2c(Nc3ccccc3S)nc3ccccc3c21 [Compound 16, 2-[(3-amino-1-methyl-1H-pyrazolo[4,3-c]quinolin-4-yl)amino]benzenethiol]	4.05 ± 2.95	-3.34 ± 1.78	
0.65 ± 0.2	> 10	Nc1noc2c1c(Nc1ccc(O)cc1)nc1ccccc12 [Compound 29, 4-(4-Hydroxyanilino)isoxazolo[4,5-c]quinolin-3-amine]	91.1 ± 0.38	29.9 ± 6.66	
4.56 ± 0.83	> 10	Cn1nc(N)c2c(Nc3ccc(C(F)(F)F)cc3)nc3ccccc3c21 [Compound 14, 4-(4-Trifluoromethylanilino)-1-methyl-1H-pyrazolo[4,3-c]quinolin-3-amine]	63.1 ± 2.51	37.6 ± 6.22	
> 10	> 10	Nc1noc2c1c(Nc1ccc(Cl)cc1)nc1ccccc12 [Compound 32, 4-(4-Chloroanilino)isoxazolo[4,5-c]quinolin-3-amine]	38.6 ± 2.3	3.69 ± 3.42	
0.73 ± 0.23	2.24 ± 0.91	Cn1nc(N)c2c(Nc3ccccc3O)nc3ccccc3c21 [Compound 11, 4-(2-Hydroxyanilino)-1-methyl-1H-pyrazolo[4,3-c]quinolin-3-amine]	93.5 ± 1.75	101 ± 4.5	
> 10	> 10	COc1ccccc1Nc1nc2ccccc2c2onc(N)c12 [Compound 21, 4-(2-Methoxyanilino)isoxazolo[4,5-c]quinolin-3-amine]	32.7 ± 4.92	-8.32 ± 2.23	
1.83	3.68 ± 0.42	Cn1nc(N)c2c(Nc3ccc(C(=O)O)cc3)nc3ccccc3c21 [Compound 15, 4-[(3-Amino-1-methyl-1H-pyrazolo[4,3-c]quinolin-4-yl)amino]benzoic acid]	82.9 ± 2.86	79.4 ± 1.91	
1.58	4.63 ± 1.1	CC(=O)c1ccc(Nc2nc3ccccc3c3c2c(N)nn3C)cc1 [Compound 10, 4-(4-Acetoylanilino)-1-methyl-1H-pyrazolo[4,3-c]quinolin-3-amine]	85.1 ± 1.66	57.2	
6.16 ± 1.18	> 10	Nc1noc2c1c(Nc1ccc(F)cc1)nc1ccccc12 [Compound 20, 4-(4-Fluoroanilino)isoxazolo[4,5-c]quinolin-3-amine]	63.2 ± 7.76	10.7 ± 4	
	> 10	CSc1ccc(Nc2nc3ccccc3c3onc(N)c23)cc1 [Compound 25, 4-(4-Methylthioanilino)isoxazolo[4,5-c]quinolin-3-amine]		18.1 ± 3.97	enhanced
> 10	> 10	Nc1noc2c1c(Nc1ccccc1)nc1ccccc12 [Compound 19, 4-Anilinoisoxazolo[4,5-c]quinolin-3-amine]	43.7 ± 6.43	5.81 ± 5.22	
4.54 ± 1.18	5.77 ± 1.14	Nc1noc2c1c(Nc1ccccc1O)nc1ccccc12 [Compound 28, 4-(2-Hydroxyanilino)isoxazolo[4,5-c]quinolin-3-amine]	91 ± 1.69	77.6 ± 4.52	
> 10	> 10	CSc1ccc(Nc2nc3ccccc3c3c2c(N)nn3C)cc1 [Compound 9, 1-Methyl-4-(4-methylthioanilino)-1H-pyrazolo[4,3-c]quinolin-3-amine]	47.7 ± 3.32	20.8 ± 3.75	
5.21 ± 1.9	> 10	Cc1ccc(Nc2nc3ccccc3c3c2c(N)nn3C)cc1 [Compound 18, 4-(4-Methylanilino)-1-methyl-1H-pyrazolo[4,3-c]quinolin-3-amine]	69.7 ± 7.05	39.7 ± 3.83	
1.89 ± 0.69	4.62 ± 1.74	Cn1nc(N)c2c(Nc3cccc(O)c3)nc3ccccc3c21 [Compound 12, 4-(3-Hydroxyanilino)-1-methyl-1H-pyrazolo[4,3-c]quinolin-3-amine]	93.2 ± 3.66	94.4 ± 8.34	
> 10	> 10	CC(=O)c1ccc(Nc2nc3ccccc3c3onc(N)c23)cc1 [Compound 27, 4-(4-Acetoylanilino)isoxazolo[4,5-c]quinolin-3-amine]	37.4 ± 5.43	-9.53 ± 5.26	
0.51 ± 0.17	3.77 ± 0.71	COc1ccc(Nc2nc3ccccc3c3c2c(N)nn3C)cc1 [Compound 7, 4-(4-Methoxyanilino)-1-methyl-1H-pyrazolo[4,3-c]quinolin-3-amine]	99.3 ± 1.51	96.7 ± 6.56	
1.44 ± 0.22	5.5 ± 1.5	Cn1nc(N)c2c(Nc3ccc(F)cc3)nc3ccccc3c21 [Compound 4, 4-(4-Fluoroanilino)-1-methyl-1H-pyrazolo[4,3-c]quinolin-3-amine]	91.2 ± 4.43	68 ± 6.8	
	6.23 ± 0.52	Nc1noc2c1c(Nc1ccc(C(F)(F)F)cc1)nc1ccccc12 [Compound 30, 4-(4-Trifluoromethylanilino)isoxazolo[4,5-c]quinolin-3-amine]		81.5 ± 6.97	enhanced

Structure (SMILES)	IC50 [1] [µM]	IC50 [2] [µM]	inhibition at 10 µM [1] [%]	inhibition at 10 µM [2] [%]	Superoxide Anion Inhibition % [1]
Cn1nc(N)c2c(Nc3ccccc3)nc3ccccc3c21 [Compound 3, 4-Anilino-l-methyl-1H-pyrazolo[4,3-c]quinolin-3-amine]	2.39 ± 0.63	4.09 ± 1.02	93.9 ± 6.32	80.5 ± 2.57	
